# According to PMC12226733, “Evolution of iGluR ligand specificity, polyamine regulation, and ion selectivity inferred from a placozoan epsilon receptor” (Communications Biology, 2025):
# Values joined by “and” are separate entries in the source; they are usually repeats but may differ in a detail not shown here. Identical values can stand only once. Like-named read-outs stand apart in the source and are kept apart here.
# Experiments:
# [1] = biological target: T1, GluE1αA S642N (Trichoplax adhaerens, UniProt B3SAW0, S167N)
# T1 sequence (B3SAW0 1-341 S167N): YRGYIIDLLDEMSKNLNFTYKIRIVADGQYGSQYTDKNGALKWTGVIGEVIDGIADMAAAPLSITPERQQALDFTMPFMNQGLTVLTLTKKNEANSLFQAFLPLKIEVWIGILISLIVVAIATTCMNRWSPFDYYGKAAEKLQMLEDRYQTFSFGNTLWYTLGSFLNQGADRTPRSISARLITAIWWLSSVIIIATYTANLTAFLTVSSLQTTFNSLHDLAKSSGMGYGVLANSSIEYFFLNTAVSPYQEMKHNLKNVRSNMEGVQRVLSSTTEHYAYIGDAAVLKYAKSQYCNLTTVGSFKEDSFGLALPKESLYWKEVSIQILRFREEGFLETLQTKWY
# Text: To further elucidate the nature of internal polyamine block in GluE1αA, we performed outside-out membrane patch clamp experiments in wildtype and mutant channels. […] Current-voltage (I-V) relationships were converted to conductance-voltage (G-V) plots and fit with a single permeant blocker model to estimate both the dissociation constant for Spm at 0 mV (Kd(0mV)) and the voltage dependency of block, as previously described[46],[47].
# HEK-293T/17 cells (ATCC) were maintained in MEM supplemented with GlutaMAX and 10% fetal bovine serum (FBS) at 37 °C and 5% CO2. […] Transient transfections were carried out 48 h post-plating using the calcium phosphate precipitation method. After 6–8 hours, cells were washed twice with PBS and maintained in fresh medium. Cells transfected with mammalian GluA2 cDNA (plasmid vector described above) were returned to an incubator at 37 °C for 24–48 hours and cells transfected with Epsilon GluE1αA were incubated at 28 °C for 48–72 hours. In cells co-transfected with TARP-γ2, 30 μM NBQX was included in the medium to minimize AMPAR/auxiliary-induced cytotoxicity. All constructs were co-transfected with a plasmid encoding enhanced green fluorescent protein (eGFP) to identify transfected cells. Electrophysiology responses were recorded from outside-out patches excised from transfected cells. Recording pipettes were composed of borosilicate glass (3 to 6 megaohm, King Precision Glass) coated with dental wax to reduce electrical noise. All recordings were performed using Axopatch 200B amplifier (Molecular Devices, LLC). Current records were filtered at 5 or 10 kHz and sampled at 25–50 kHz. Series resistance (3 to 12 megaohms) was compensated by 95%. Recordings were performed at a range of holding potentials from −100 mV to 100 mV to study polyamine block. Data was acquired using pClamp9 software (Molecular Devices, LLC). All experiments were performed at room temperature. All chemicals were purchased from Sigma-Aldrich, unless otherwise indicated. External solution contained (in mM): 150 NaCl, 5 HEPES, 0.1 CaCl2, 0.1 MgCl, and […], pH 7.3–7.4. […] The osmotic pressure of all solutions was adjusted to 295 to 300 mOsm with sucrose. […] Stocks were thawed on the day of the experiment and used to prepared agonist-containing external solutions. Raw data for all electrophysiology experiments are provided in Supplementary Data 3. Current-voltage (I-V) relationships were fit using Origin 7 (OriginLab) using a ninth order polynomial function to estimate the reversal potential (Vrev).
# Agonist-evoked membrane conductance (G) was calculated using the following equation: G=I/(V−Vrev)
# Conductance-voltage (G-V) relationships were fit using Origin 7 (OriginLab) with the single permeant blocker model as done previously[46]: G=Gmax/1+[Spm]/Kd Where Gmax is the maximal conductance, [Spm] is the internal Spm concentration, and Kd is the dissociation constant.
# Kd is defined as: Kd=koff+kperm/kon=sumofexitrates/bindingrate
# And redefined as: Kd=g*exp(V/h)+L*exp(V/k) Where h and k are voltage dependencies of g and L, respectively, and at 0 mV: g=koff/konandL=kperm/kon
# [2] = test system: GluE1αA D646A; format: cell-based, Trichoplax adhaerens; settings: […]; for normalized conductance (G-V, Figure 5g), Avg: Na vs Na; for I-V current, Na vs Na, Avg of recordings: Figure 5b
# [3] = biological target: T2, GluA2 Q607S (Homo sapiens, UniProt P42262, Q607S); format: cell-based; settings: GluA2 Q-S; for normalized conductance (G-V, Figure 5g), Avg: Na vs Na; for I-V current, Na vs Na, Avg of recordings: Figure 5b
# T2 construct: host or cells: HEK-293T/17
# T2 sequence (P42262 25-883 Q607S): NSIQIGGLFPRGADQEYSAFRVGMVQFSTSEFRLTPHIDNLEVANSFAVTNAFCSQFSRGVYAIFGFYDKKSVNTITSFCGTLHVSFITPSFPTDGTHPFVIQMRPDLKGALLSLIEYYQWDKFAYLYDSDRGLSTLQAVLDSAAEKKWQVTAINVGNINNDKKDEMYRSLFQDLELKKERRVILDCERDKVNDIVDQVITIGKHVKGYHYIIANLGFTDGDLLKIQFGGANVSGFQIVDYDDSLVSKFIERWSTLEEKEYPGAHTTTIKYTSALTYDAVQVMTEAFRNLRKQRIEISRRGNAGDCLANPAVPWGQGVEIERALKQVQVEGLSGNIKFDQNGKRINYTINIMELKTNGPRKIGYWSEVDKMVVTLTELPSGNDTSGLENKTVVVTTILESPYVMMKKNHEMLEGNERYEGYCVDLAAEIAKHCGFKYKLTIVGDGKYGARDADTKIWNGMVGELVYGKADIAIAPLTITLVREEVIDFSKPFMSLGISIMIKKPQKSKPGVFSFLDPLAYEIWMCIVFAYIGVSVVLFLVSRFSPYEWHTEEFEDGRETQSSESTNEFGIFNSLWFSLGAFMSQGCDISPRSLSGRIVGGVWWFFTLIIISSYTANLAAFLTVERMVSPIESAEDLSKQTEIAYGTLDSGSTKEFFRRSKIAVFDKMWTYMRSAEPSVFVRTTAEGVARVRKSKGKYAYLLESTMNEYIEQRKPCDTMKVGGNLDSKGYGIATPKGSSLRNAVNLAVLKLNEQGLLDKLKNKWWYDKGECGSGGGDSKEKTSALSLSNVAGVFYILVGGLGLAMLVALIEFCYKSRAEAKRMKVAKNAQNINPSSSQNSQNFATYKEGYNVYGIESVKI
# [4] = test system: GluE1αA S642Q plus D646A; format: cell-based, Trichoplax adhaerens; settings: […]; for normalized conductance (G-V, Figure 5g), Avg: Na vs Na; for I-V current, Na vs Na, Avg of recordings: Figure 5b
compound,measurement,setting,value
NCCCNCCCCNCCCN [spermine],Normalized conductance (Gnorm),"[1]; 0 mV, single recordings c1-c7, AVG c8",0.27 and 0.16 and 0.22
same,Normalized conductance (Gnorm),"[1]; -80 mV, single recordings c1-c7, AVG c8",0.79
same,Normalized current (Inorm),"[1]; -100 mV, single recordings c1-c7, AVG c8",-1.00
same,"h, voltage dependency of block onset",[1]; GluE1αA S642N,−26.4 ± 1.3 mV
same,"k, voltage dependency of block relief",[1]; GluE1αA S642N,34.9 ± 3.7 mV
[Na+] [Na],"normalized conductance (G-V, Figure 5g), Avg",[2]; Vm 0.00,0.81
same,"normalized conductance (G-V, Figure 5g), Avg",[2]; Vm 20.00,0.80
same,"normalized conductance (G-V, Figure 5g), Avg",[2]; Vm 40.00,0.77
same,"normalized conductance (G-V, Figure 5g), Avg",[2]; Vm 60.00,0.74
same,"normalized conductance (G-V, Figure 5g), Avg",[2]; Vm 80.00,0.78
same,"normalized conductance (G-V, Figure 5g), Avg",[2]; Vm -20.00,0.83
same,"normalized conductance (G-V, Figure 5g), Avg",[2]; Vm -40.00,0.84
same,"normalized conductance (G-V, Figure 5g), Avg",[2]; Vm -60.00,0.88
same,"normalized conductance (G-V, Figure 5g), Avg",[2]; Vm -80.00,1.00
same,"I-V current, Na vs Na, Avg of recordings",[2]; Vm 0.00,-0.000461
same,"I-V current, Na vs Na, Avg of recordings",[2]; Vm 20.00,0.18
same,"I-V current, Na vs Na, Avg of recordings",[2]; Vm 40.00,0.36
same,"I-V current, Na vs Na, Avg of recordings",[2]; Vm 60.00,0.53
same,"I-V current, Na vs Na, Avg of recordings",[2]; Vm 80.00,0.69
same,"I-V current, Na vs Na, Avg of recordings",[2]; Vm -20.00,-0.18
same,"I-V current, Na vs Na, Avg of recordings",[2]; Vm -40.00,-0.37
same,"I-V current, Na vs Na, Avg of recordings",[2]; Vm -60.00,-0.56
same,"I-V current, Na vs Na, Avg of recordings",[2]; Vm -80.00,-0.76
same,"normalized conductance (G-V, Figure 5g), Avg",[3]; Vm 0.00,0.29
same,"normalized conductance (G-V, Figure 5g), Avg",[3]; Vm 20.00,0.39
same,"normalized conductance (G-V, Figure 5g), Avg",[3]; Vm 40.00,0.47
same,"normalized conductance (G-V, Figure 5g), Avg",[3]; Vm 60.00,0.53
same,"normalized conductance (G-V, Figure 5g), Avg",[3]; Vm 80.00,0.52
same,"normalized conductance (G-V, Figure 5g), Avg",[3]; Vm -20.00,0.28
same,"normalized conductance (G-V, Figure 5g), Avg",[3]; Vm -40.00,0.39
same,"normalized conductance (G-V, Figure 5g), Avg",[3]; Vm -60.00,0.63
same,"normalized conductance (G-V, Figure 5g), Avg",[3]; Vm -80.00,1.00
same,"I-V current, Na vs Na, Avg of recordings",[3]; Vm 0.00,-0.0234
same,"I-V current, Na vs Na, Avg of recordings",[3]; Vm 20.00,0.09
same,"I-V current, Na vs Na, Avg of recordings",[3]; Vm 40.00,0.23
same,"I-V current, Na vs Na, Avg of recordings",[3]; Vm 60.00,0.41
same,"I-V current, Na vs Na, Avg of recordings",[3]; Vm 80.00,0.57
same,"I-V current, Na vs Na, Avg of recordings",[3]; Vm -20.00,-0.10
same,"I-V current, Na vs Na, Avg of recordings",[3]; Vm -40.00,-0.20
same,"I-V current, Na vs Na, Avg of recordings",[3]; Vm -60.00,-0.35
same,"I-V current, Na vs Na, Avg of recordings",[3]; Vm -80.00,-0.61
same,"normalized conductance (G-V, Figure 5g), Avg",[4]; Vm 0.00,0.77
same,"normalized conductance (G-V, Figure 5g), Avg",[4]; Vm 20.00,0.75
same,"normalized conductance (G-V, Figure 5g), Avg",[4]; Vm 40.00,0.71
same,"normalized conductance (G-V, Figure 5g), Avg",[4]; Vm 60.00,0.70
same,"normalized conductance (G-V, Figure 5g), Avg",[4]; Vm 80.00,0.74
same,"normalized conductance (G-V, Figure 5g), Avg",[4]; Vm -20.00,0.79
same,"normalized conductance (G-V, Figure 5g), Avg",[4]; Vm -40.00,0.87
same,"normalized conductance (G-V, Figure 5g), Avg",[4]; Vm -60.00,0.95
same,"normalized conductance (G-V, Figure 5g), Avg",[4]; Vm -80.00,1.00
same,"I-V current, Na vs Na, Avg of recordings",[4]; Vm 0.00,-0.02
same,"I-V current, Na vs Na, Avg of recordings",[4]; Vm 20.00,0.15
same,"I-V current, Na vs Na, Avg of recordings",[4]; Vm 40.00,0.31
same,"I-V current, Na vs Na, Avg of recordings",[4]; Vm 60.00,0.47
same,"I-V current, Na vs Na, Avg of recordings",[4]; Vm 80.00,0.63
same,"I-V current, Na vs Na, Avg of recordings",[4]; Vm -20.00,-0.18
same,"I-V current, Na vs Na, Avg of recordings",[4]; Vm -40.00,-0.37
same,"I-V current, Na vs Na, Avg of recordings",[4]; Vm -60.00,-0.57
same,"I-V current, Na vs Na, Avg of recordings",[4]; Vm -80.00,-0.76
